Values quoted from earlier work, collected in EP1072609A2, “Cytoprotective agents comprising prosaposin-related peptides” (Sakanaka, Masahiro, priority 1999, dated 2001).
Ends that are not written are not given here.

What was measured:
[1] = test system: neurons in the ischemic penumbra of the cerebral cortex; conditions: intracerebroventricular infusion
[2] = intravenous administration

Compound | cortical infarction [1] | place navigation disability [1] | expression of Bcl-xL (Bcl-xL) | share of intravenously administered peptide transferred into the brain [2]
CC(C)=CCC[C@](C)(O[C@@H]1O[C@H](CO[C@@H]2O[C@H](CO)[C@@H](O)[C@H](O)[C@H]2O)[C@@H](O)[C@H](O)[C@H]1O)[C@H]1CC[C@]2(C)[C@@H]1[C@H](O)C[C@@H]1[C@@]3(C)CC[C@H](O[C@@H]4O[C@H](CO)[C@@H](O)[C@H](O)[C@H]4O[C@@H]4O[C@H](CO)[C@@H](O)[C@H](O)[C@H]4O)C(C)(C)[C@@H]3CC[C@]12C [ginsenoside Rb1] | ameliorate | ameliorate | stimulates | –
LSELIINNATEELLIKGL [18-MP] | – | – | – | approximately 0.03%
